Drawing on patent publication EP4786483A1, “AURISTATIN DERIVATIVE AND ANTIBODY-DRUG CONJUGATE THEREOF” (priority 2023, dated 2025), this text covers IC50 for 14 compounds.

Common to all, as to type: cell-based
Test [1] relates to CD34^+ hematopoietic stem/progenitor cells. The test can be described thus: Hematologic toxicity of compounds (CD34+ HSC viability, CTG). The following applies: 240 h; cytotoxic drugs; treatment for 10 days; CTG cell viability. The protocol:
Experimental objective: The effects of cytotoxic drugs on the differentiation and development of CD34^+ hematopoietic stem/progenitor cells into the megakaryocytic lineage were investigated, so as to evaluate their potential hematologic toxicity of causing thrombocytopenia.
Experimental design: After resuscitation, bone marrow-mobilized peripheral blood-derived HSCs were seeded at 2000 cells/well/180 µL in an ultra-low attachment 96-well round-bottom plate and stabilized for 4 h. The cells were treated with compounds by performing a 5-fold gradient dilution starting from the highest dose of 1 µM, resulting in a total of 9 concentration points, and this treatment was maintained continuously for 10 days. Cell viability was detected using the CTG reagent (CellTiter-Glo luminescent cell viability detection kit, manufacturer: Promega, Cat. No.: G7571). Table 2. Hematologic toxicity test results of cytotoxic drugs

Test [2] deals with Human gastric cancer cells NCI-N87. The test can be described thus: Cytotoxicity test for compounds (CellTiter-Glo cell proliferation inhibition). Particulars: Homo sapiens, NCI-N87, 72 h. How it is done: (§1) Biological Test Example 1: Cytotoxicity Test for Compounds
(§2) • 96-well clear flat-bottom white plate (Corning, #3610) • RPMI1640 culture medium (Gibco, #A10491-01) • Fetal Bovine Serum (Sigma-Aldrich, #F8687-500ML) • CellTiter-Glo® Luminescent Cell Viability Assay (Promega, # G7572/G7571)
(§3) Human gastric cancer cells NCI-N87 (ATCC, Cat. No.: CRL-5822), human breast cancer cells MDA-MB-468 (Cell Bank of the Committee for Type Culture Collection of the Chinese Academy of Sciences, Cat. No.: TCHu136), and human breast cancer cells KPL-4 (Nanjing Cobioer Biosciences Co., Ltd., Cat. No.: CBP60379) were washed with PBS and digested with 0.25% Trypsin-EDTA trypsin for about 3-10 min. The digestion was terminated with a complete cell culture medium. The cells were centrifuged at 1000 rpm for 5 min, and the supernatant was discarded. The cells were resuspended in a complete cell culture medium. The cell number was counted using a cell counter, and the cells were adjusted to the desired density. 90.0 µL of the cell suspension was added to each well at 3000 cells/well. The cell plate was incubated in a cell incubator at 37°C with 5% CO2 overnight.
(§4) In the experiment, a DMSO control group and test sample groups were set. The cell plate was removed from the incubator to observe cell adherence. After the cells adhered, 10.00 µL of the sample (starting from a final concentration of 10 µM, 5-fold dilution, 9 concentrations) was added to each well. After the mixture was gently shaken uniformly, the plate was incubated in the incubator.
(§5) After 3 days of incubation, 100.0 µL/well of CellTiter-Glo™ (Promega, Cat. No.: G7572/G7571) working solution was added. The plate was shaken on a thermostatic shaker to lyse the cells. After 10 min, the plate was read on a microplate reader.
(§6) Data analysis: GraphPad Prism 8.0 software was used to plot a graph with the Log value of the sample concentration as the abscissa and the Inhibition% as the ordinate. The data were analyzed by Nonlinear regression (curve fit) to obtain the IC50 value of each test sample. Table 1. Inhibition activity of compounds of the present disclosure on cell proliferation
(Cellular ATP, detected with luciferase, serves as a proxy for viable cell number.)

Test [3] has as its system human breast cancer cells KPL-4. The description is as above. The following applies: Homo sapiens, KPL4, 72 h. How it is done:
as §1, §2, §3, §4, §5, §6

For test [4], the system named is human breast cancer cells MDA-MB-468. Described as above. The following applies: Homo sapiens, MDA-MB-468, 72 h. The protocol:
as §1, §2, §3, §4, §5, §6

[5] abbreviates: 3 days of incubation, CellTiter-Glo, read-out: NCI-87/IC50.
The mark [6] stands for this setting: 3 days of incubation, CellTiter-Glo, read-out: KPL-4/IC50.
The mark [7] stands for this setting: 3 days of incubation, CellTiter-Glo, read-out: MDA-MD-468/IC50.

Each structure is given as a SMILES string. Like-named read-outs stand apart in the source and are kept apart here. Non-standard residues stand in square brackets, D forms with d. Residues, ends and D or L forms follow the SMILES beside them. *: point of attachment. Dolaproine = CO[C@@H]([C@@H]1CCCN1)[C@@H](C)C(=O)O; Dil = CC[C@H](C)[C@H](NC)[C@@H](CC(=O)O)OC; Phe(3-NH2) = Nc1cccc(C[C@H](N)C(=O)O)c1; NMe2Val = CC(C)[C@@H](C(=O)*)N(C)C

Compound `CC[C@H](C)[C@@H]([C@@H](CC(=O)N1CCC[C@H]1[C@H](OC)[C@@H](C)C(=O)N(C)CCc1cccc(N)c1)OC)N(C)C(=O)[C@@H](NC(=O)[C@H](C(C)C)N(C)C)C(C)C` [WO2023081230A1 Compound 1, reference compound] showed an IC50 in test [1] of 0.017 nM.
For `C=CC[C@H](Cc1cccc(N)c1)OC(=O)[C@H](C)[C@@H](OC)[C@@H]1CCCN1C(=O)C[C@@H](OC)[C@H]([C@@H](C)CC)N(C)C(=O)[C@@H](NC(=O)[C@H](C(C)C)N(C)C)C(C)C` [Example 18], the IC50 in test [2] (read-out: NCI-87/IC50 (nM)), in test [3] (read-out: KPL-4/IC50 (nM)) and in test [4] (read-out: MDA-MD-468/IC50 (nM)) was below 0.0256 nM in each case.
Turning to `CC[C@H](C)[C@@H]([C@@H](CC(=O)N1CCC[C@H]1[C@H](OC)[C@@H](C)C(=O)O[C@H](CN=[N+]=[N-])Cc1cccc(N)c1)OC)N(C)C(=O)[C@@H](NC(=O)[C@H](C(C)C)N(C)C)C(C)C` [Example 15], the results for the IC50 in test [2] (read-out: NCI-87/IC50 (nM)), in test [3] (read-out: KPL-4/IC50 (nM)) and in test [4] (read-out: MDA-MD-468/IC50 (nM)) were 11.3 nM, 2 nM and 2.74 nM, respectively.
Consider `CC[C@H](C)[C@@H]([C@@H](CC(=O)N1CCC[C@H]1[C@H](OC)[C@@H](C)C(=O)N[C@@H](Cc1cccc(N)c1)C(=O)NC)OC)N(C)C(=O)[C@@H](NC(=O)[C@H](C(C)C)N(C)C)C(C)C` [Example 4, (S)-N-((3R,4S,5S)-1-((S)-2-((1R,2R)-3-(((S)-3-(3-aminophenyl)-1-(methylamino)-1-oxopropan-2-yl)amino)-1-methoxy-2-methyl-3-oxopropyl)pyrrolidin-1-yl)-3-methoxy-5-methyl-1-oxoheptan-4-yl)-2-((S)-2-(dimethylamino)-3-methylbutanamido)-N,3-dimethylbutanamide] (NMe2Val-V[Dil][Dolaproine][Phe(3-NH2)]-NHMe), for which the IC50 turned out to be 14.7 nM in test [2] (setting [5]), 5.26 nM in test [3] (setting [6]) and 6.12 nM in test [4] (setting [7]).
For `C#CC(Cc1cccc(N)c1)OC(=O)[C@H](C)[C@@H](OC)[C@@H]1CCCN1C(=O)C[C@@H](OC)[C@H]([C@@H](C)CC)N(C)C(=O)[C@@H](NC(=O)[C@H](C(C)C)N(C)C)C(C)C` (single isomer, unassigned) [Example 21], the IC50 in test [2] (setting [5]), in test [3] (setting [6]) and in test [4] (setting [7]) was below 0.0256 nM throughout.
For the compound `CC[C@H](C)[C@@H]([C@@H](CC(=O)N1CCC[C@H]1[C@H](OC)[C@@H](C)C(=O)OCCc1cccc(N)c1)OC)N(C)C(=O)[C@@H](NC(=O)[C@H](C(C)C)N(C)C)C(C)C` [Example 13], the IC50 in test [2] (read-out: NCI-87/IC50 (nM)) amounted to 0.58 nM; in test [3] (read-out: KPL-4/IC50 (nM)), 0.18 nM; in test [4] (read-out: MDA-MD-468/IC50 (nM)) it was 0.56 nM.
For `CC[C@H](C)[C@@H]([C@@H](CC(=O)N1CCC[C@H]1[C@H](OC)[C@@H](C)C(=O)OC1(Cc2cccc(N)c2)CC1)OC)N(C)C(=O)[C@@H](NC(=O)[C@H](C(C)C)N(C)C)C(C)C` [Example 32], in that order: below 0.0256 nM, below 0.0256 nM and below 0.0256 nM.
On to `C#CC[C@H](Cc1cccc(N)c1)OC(=O)[C@H](C)[C@@H](OC)[C@@H]1CCCN1C(=O)C[C@@H](OC)[C@H]([C@@H](C)CC)N(C)C(=O)[C@@H](NC(=O)[C@H](C(C)C)N(C)C)C(C)C` [Example 17], for which the IC50 in test [2] (read-out: NCI-87/IC50 (nM)), in test [3] (read-out: KPL-4/IC50 (nM)) and in test [4] (read-out: MDA-MD-468/IC50 (nM)) was below 0.0256 nM each time.
Regarding `CC[C@H](C)[C@@H]([C@@H](CC(=O)N1CCC[C@H]1[C@H](OC)[C@@H](C)C(=O)O[C@H](CC#N)Cc1cccc(N)c1)OC)N(C)C(=O)[C@@H](NC(=O)[C@H](C(C)C)N(C)C)C(C)C` [Example 9, (S)-1-(3-aminophenyl)-3-cyanopropan-2-yl (2R,3R)-3-((S)-1-((3R,4S,5S)-4-((S)-2-((S)-2-(dimethylamino)-3-methylbutanamido)-N,3-dimethylbutanamido)-3-methoxy-5-methylheptanoyl)pyrrolidin-2-yl)-3-methoxy-2-methylpropanoate], the results for the IC50 in test [2] (setting [5]), in test [3] (setting [6]) and in test [4] (setting [7]) were 3.84 nM, 0.74 nM and 3.34 nM, respectively.
For `CC[C@H](C)[C@@H]([C@@H](CC(=O)N1CCC[C@H]1[C@H](OC)[C@@H](C)C(=O)N1CCS(=O)(=O)[C@H](c2cccc(N)c2)C1)OC)N(C)C(=O)[C@@H](NC(=O)[C@H](C(C)C)N(C)C)C(C)C` (single isomer, unassigned) [Example 61-P1], in that order: 93.9 nM, 49.5 nM and 34.6 nM.
For `CC[C@H](C)[C@@H]([C@@H](CC(=O)N1CCC[C@H]1[C@H](OC)[C@@H](C)C(=O)N[C@H](CCl)Cc1cccc(N)c1)OC)N(C)C(=O)[C@@H](NC(=O)[C@H](C(C)C)N(C)C)C(C)C` [Example 1, (S)-N-((3R,4S,5S)-1-((S)-2-((1R,2R)-3-(((S)-1-(3-aminophenyl)-3-chloropropan-2-yl)amino)-1-methoxy-2-methyl-3-oxopropyl)pyrrolidin-1-yl)-3-methoxy-5-methyl-1-oxoheptan-4-yl)-2-((S)-2-(dimethylamino)-3-methylbutanamido)-N,3-dimethylbutanamide], the IC50 in test [2] (setting [5]) was determined as 0.74 nM; in test [3] (setting [6]), 0.41 nM; in test [4] (setting [7]) it was 0.63 nM.
For `CC[C@H](C)[C@@H]([C@@H](CC(=O)N1CCC[C@H]1[C@H](OC)[C@@H](C)C(=O)N[C@@H](Cc1cccc(N)c1)C(N)=O)OC)N(C)C(=O)[C@@H](NC(=O)[C@H](C(C)C)N(C)C)C(C)C` [Example 3, (S)-N-((3R,4S,5S)-1-((S)-2-((1R,2R)-3-(((S)-1-amino-3-(3-aminophenyl)-1-oxopropan-2-yl)amino)-1-methoxy-2-methyl-3-oxopropyl)pyrrolidin-1-yl)-3-methoxy-5-methyl-1-oxoheptan-4-yl)-2-((S)-2-(dimethylamino)-3-methylbutanamido)-N,3-dimethylbutanamide] (NMe2Val-V[Dil][Dolaproine][Phe(3-NH2)]-NH2), the IC50 in test [2] (setting [5]) was 38.4 nM; in test [3] (setting [6]), 18.9 nM; in test [4] (setting [7]), 25.1 nM.
Turning to `C#C[C@H](Cc1cccc(N)c1)NC(=O)[C@H](C)[C@@H](OC)[C@@H]1CCCN1C(=O)C[C@@H](OC)[C@H]([C@@H](C)CC)N(C)C(=O)[C@@H](NC(=O)[C@H](C(C)C)N(C)C)C(C)C` [Example 2, (S)-N-((3R,4S,5S)-1-((S)-2-((1R,2R)-3-(((S)-1-(3-aminophenyl)-but-3-yn-2-yl)amino)-1-methoxy-2-methyl-3-oxopropyl)pyrrolidin-1-yl)-3-methoxy-5-methyl-1-oxoheptan-4-yl)-2-((S)-2-(dimethylamino)-3-methylbutanamido)-N,3-dimethylbutanamide], the values for the IC50 in test [2] (setting [5]), in test [3] (setting [6]) and in test [4] (setting [7]) were 0.51 nM, 0.21 nM and 0.36 nM, respectively.
For `C=CCN(CCc1cccc(N)c1)C(=O)[C@H](C)[C@@H](OC)[C@@H]1CCCN1C(=O)C[C@@H](OC)[C@H]([C@@H](C)CC)N(C)C(=O)[C@@H](NC(=O)[C@H](C(C)C)N(C)C)C(C)C` [Example 5, (S)-N-((3R,4S,5S)-1-((S)-2-((1R,2R)-3-(allyl(3-aminophenethyl)amino)-1-methoxy-2-methyl-3-oxopropyl)pyrrolidin-1-yl)-3-methoxy-5-methyl-1-oxoheptan-4-yl)-2-((S)-2-(dimethylamino)-3-methylbutanamido)-N,3-dimethylbutanamide], in that order: 4.28 nM, 3.56 nM and 8.81 nM.
